Experiment [1] in a line: Proton Relaxation Enhancement (PRE) titration of Gd-complexes (GBCA) with HPTS: binding parameters Ka and Rb. The following applies: for Ka: interaction of GBCA (1 mM) with HPTS, Hepes/NaCl; for Ka / Rb: T = 25° C., 21.5 MHz, pH = 7.0 ± 0.1; for Rb: relaxivity of the adduct with HPTS at saturation.
Procedure: The binding parameters Ka and Rb between the investigated Gd-complexes and the polyarylene additives were calculated by using the well-established Proton Relaxation Enhancement (PRE) technique.
This method consists in measuring the variation in the longitudinal proton Relaxation Rates (R1=1/T1) of the paramagnetic solutions upon increasing the concentration of the interacting substrate. By this method, the binding parameters Ka (the affinity constant) and Rb (the relaxivity of the resulting adducts at saturation) can be determined. To this end, solutions of the Gd-complexes (1 mM) were titrated with the polyarylenes compounds and non-hydrophobic reference compounds (in the concentration range 1-40 mM, leading to the saturation of the contrast agent), at 21.5 MHz and 298 K, in Hepes/NaCl buffer solution ([hepes]=3.8 mM, [NaCl]=150 mM) at pH 7.0-7.2.
Relaxation rates were measured on a Stelar SpinMaster Relaxometer (Stelar, Mede, PV, It) operating at 21.5 MHz by means of the inversion recovery method (16 experiments, two scans). The reproducibility of the T data was ±0.5%.
Analysis of data was carried out by using origin 9.0 software.
Experiment [2] in a line: Proton Relaxation Enhancement (PRE) titration of ProHance with polyarylenes and reference compounds: Ka and Rb. Type of experiment: binding. As to conditions: for Rb/r1p: adduct with ProHance relative to free ProHance; for Ka: interaction with ProHance (1 mM), Hepes/NaCl; for Ka / Rb: T = 25° C., 21.5 MHz, pH = 7.0 ± 0.1; for Rb: relaxivity of the adduct with ProHance at saturation. On the procedure:
(§1) This method consists in measuring the variation in the longitudinal proton Relaxation Rates (R1=1/T1) of the paramagnetic solutions upon increasing the concentration of the interacting substrate. […] To this end, solutions of the Gd-complexes (1 mM) were titrated with the polyarylenes compounds and non-hydrophobic reference compounds (in the concentration range 1-40 mM, leading to the saturation of the contrast agent), at 21.5 MHz and 298 K, in Hepes/NaCl buffer solution ([hepes]=3.8 mM, [NaCl]=150 mM) at pH 7.0-7.2.
(§2) The reproducibility of the T data was ±0.5%.
The least-squares fit of the R1 versus substrate concentration binding isotherms (FIGS. 4 and 5) enabled us to calculate the affinity constants and the relaxivities of the adducts reported in tables 2 and 3 below.
Other aromatic-containing structures, beside HPTS, were considered for the interaction.

The nature of experiment [3]: Longitudinal relaxivity r1p of the free Gd-complex (relaxometry, 21.5 MHz). The format is physicochemical. The following applies: T = 25° C., B0 = 21.5 MHz, pH = 7.0 ± 0.1. On the procedure: as §1, §2
Experiment [4] can be described thus: 1H NMRD profiles of ProHance free and in the presence of 40 mM HPTS. Type of experiment: physicochemical. The following applies: 1 mM ProHance with 40 mM HPTS vs ProHance as-such; 298 K; 0.01-70 MHz. How it is done:
In order to investigate if the enhancement of the relaxivity is maintained at different magnetic field strength, the proton 1/T1 NMRD profiles were measured at 298 K on 1 mM ProHance solutions in the absence and in the presence of 40 mM HPTS. Measurements were carried out on a fast field-cycling Stelar relaxometer over a continuum of magnetic field strengths from 0.00024 to 0.47 T (corresponding to 0.01-20 MHz proton Larmor Frequency). The relaxometer operates under computer control with an absolute uncertainty in 1/T1 of ±0.1%. Additional data points in the range 21.5-70 MHz were obtained on the Stelar SpinMaster relaxometer. The concentration of the solutions used for the relaxometric characterization was determined according to a previously reported relaxometric method (Arena, F. et al, Bioconjugate Chem. 2011, 22, 2625-2635).
The analysis provides the evolution of the relaxivity of the two species as a function of the magnetic field.

Experiment [5] deals with TS/A breast cancer cells transplanted on Balb/c mice. As to conditions: T1w MRI at 7.1T, injection of 0.15 mmol/Kg ProHance alone or with 0.45 mmol/Kg HPTS.
Procedure: Mice were injected with 0.15 mmoles/kg of ProHance e 0.45 mmoles/kg of HPTS (corresponding to 150-220 μL for 20-30 g mice).
In vivo experiments were carried out on xenograpt murine models of cancer.
Female 10-12 weeks Balb/c mice (Charles River Laboratories, Calco, Italy) were inoculated subcutaneously in the flank with 0.1 mL of a suspension containing 5×10^5 TS/A mammary breast cancer cell lines (Nanni P. et al. Clin. Exp. Metastasis 1983, 1, 373-380).
For MRI acquisition, mice were anesthetized by intramuscular injection of a mixture of 20 mg/kg tiletamine/zolazepam (Zoletil 100, Virbac, Milan, Italy) 20 mg/kg plus 5 mg/kg xylazine (Rompun; Bayer, Milan, Italy). A permanent vein access was obtained by inserting a PE10 catheter into the tail vein.
MR images have been acquired, pre and post injection of GBCA, at 7.1T by using Bruker Avance 300 spectrometer equipped with a Micro 2.5 microimaging probe. Mice were injected with 0.15 mmol/Kg of ProHance followed (after 1 h when the wash-out of the GBCA was considered complete) by the injection of a mixture of ProHance and HPTS (0.15 mmol/Kg ProHance and 0.45 mmol/Kg HPTS).
Tumor volume and morphology were determined by multislices anatomical T2w images. A ROI was manually drawn and the slice volume was calculated. […]

The results in this text go back to US12226494B2, “Pharmaceutical compositions comprising Gd-complexes and polyarylene additives” (BRACCO IMAGING S.P.A., priority 2018, dated 2025).

“Also recorded” adds a separate entry of the source.

Consider `CNC[C@H](O)[C@@H](O)[C@H](O)[C@H](O)CO.CNC[C@H](O)[C@@H](O)[C@H](O)[C@H](O)CO.O=C([O-])CN(CCN(CC(=O)[O-])CC(=O)O)CCN(CC(=O)O)C(COCc1ccccc1)C(=O)[O-].[Gd+3]` (stereo not shown) [MultiHance, gadobenate dimeglumine], for which the Ka result in experiment [1] is given as “no binding is observed; also recorded: No interaction”.

With `O=S(=O)(O)c1cc(S(=O)(=O)O)c2ccc3c(O)cc(O)c4ccc1c2c43` [HPDS, 6,8-Dihydroxypyrene-1,3-disulfonic acid], in experiment [2], the Rb/r1p was 2.4, the Ka came out at 124 M⁻¹ and the Rb was 10.9 mM⁻¹ s⁻¹.

For the compound `O=C([O-])CN1CCNCCN(CC(=O)[O-])CCN(CC(=O)[O-])CC1.[Gd+3]` [Gd-DO3A], the r1p in experiment [3] is 6.2 mM⁻¹ s⁻¹. For the same compound, in experiment [1], the Ka is 246 M⁻¹ and the Rb turned out to be 9.5 mM⁻¹ s⁻¹.

For `O=S(=O)(O)c1cc(O)c2ccc3c(S(=O)(=O)O)cc(S(=O)(=O)O)c4ccc1c2c34` [HPTS, 8-Hydroxypyrene-1,3,6-trisulfonic acid], in experiment [2], the Rb/r1p is 1.5, the Ka was determined as 628 M⁻¹ and the Rb is 6.9 mM⁻¹ s⁻¹.

Turning to `O=C(O)COc1cc(S(=O)(=O)O)c2ccc3c(S(=O)(=O)O)cc(S(=O)(=O)O)c4ccc1c2c43` [CMPTS, 8-Carboxymethoxypyrene-1,3,6-trisulfonic acid], in experiment [2], the Rb/r1p amounted to 1.8, the Ka was determined as 94.2 M⁻¹ and the Rb turned out to be 8.5 mM⁻¹ s⁻¹.

For the compound `CC(O)CN1CCN(CC(=O)O)CCN(CC(=O)O)CCN(CC(=O)O)CC1` (stereo not shown) [ProHance], in experiment [3], the r1p is 4.6 mM⁻¹ s⁻¹. For the same compound, the “improvement of the relaxivity as a function of the magnetic field (NMRD profile)” value in experiment [4] was “maintained over the whole range of magnetic field”. For the same compound, the “improvement of the relaxivity shown by the free complex” value in experiment [1] (20% of the complex in the form of a non-covalent adduct with HPTS) was “about 10%”; in experiment [1] (60% of the complex in the form of a non-covalent adduct with HPTS), approximately 30%; in experiment [1] (99% of the complex in the form of a non-covalent adduct with HPTS), approximately 50%. Also, the Ka in experiment [1] was found to be 628 M⁻¹. Further, in experiment [1] (molar ratio 1:3 of Prohance to HTPS), the “improvement of relaxivity in comparison with Prohance as-such” value is reported as “about 30%”. Moreover, the Rb in experiment [1] is 6.9 mM⁻¹ s⁻¹. Also, the “mean signal enhancement, Enh %, in the tumor ROI” value in experiment [5] was found to be 53%.

On to `O=C(O)CN1CCN(CC(=O)O)CCN(CC(=O)O)CCN(CC(=O)O)CC1` [Dotarem], for which, in experiment [3], the r1p is 4.2 mM⁻¹ s⁻¹. Besides, in experiment [1], the Ka was found to be 174 M⁻¹ and the Rb came out at 7.4 mM⁻¹ s⁻¹.

Consider `COc1cc(S(=O)(=O)O)c2ccc3c(S(=O)(=O)O)cc(S(=O)(=O)O)c4ccc1c2c43` [MPTS, 8-Methoxy-1,3,6 pyrene trisulfonic acid], for which, in experiment [2], the Rb/r1p was determined as 1.4, the Ka worked out at 514 M⁻¹ and the Rb came to 6.5 mM⁻¹ s⁻¹.

Turning to `O=S(=O)(O)c1cccc2c(S(=O)(=O)O)cccc12` [1,5 NDS, 1,5 Naphthalene disulphonic acid], in experiment [2], the Rb/r1p was 1.4, the Ka worked out at 45.5 M⁻¹ and the Rb was 6.3 mM⁻¹ s⁻¹.

Consider `CNC[C@H](O)[C@@H](O)[C@H](O)[C@H](O)CO.CNC[C@H](O)[C@@H](O)[C@H](O)[C@H](O)CO.O=C([O-])CN(CCN(CC(=O)[O-])CC(=O)O)CCN(CC(=O)[O-])CC(=O)O.[Gd+3]` [Magnevist], for which, in experiment [1], the Ka entry is given as “no binding is observed; also recorded: No interaction”.

Consider `O=S(=O)(O)c1cc(S(=O)(=O)O)c2ccc3c(S(=O)(=O)O)cc(S(=O)(=O)O)c4ccc1c2c43` [PTS, 1,3,6,8 Pyrenetetrasulfonic acid], for which, in experiment [2], the Rb/r1p was 1.6, the Ka was determined as 177 M⁻¹ and the Rb stood at 7.3 mM⁻¹ s⁻¹.

In turn, `O=C(O)CN1CCN(CC(=O)O)CCN(C(CO)C(O)CO)CCN(CC(=O)O)CC1` (stereo not shown) [Gadovist, Gadobutrol] had a r1p in experiment [3] of 5.0 mM⁻¹ s⁻¹. Also, in experiment [1], the Ka came to 1157 M⁻¹ and the Rb is 7.9 mM⁻¹ s⁻¹.

Turning to `Nc1cc(S(=O)(=O)O)c2ccc3c(S(=O)(=O)O)cc(S(=O)(=O)O)c4ccc1c2c43` [APTS, 8-Aminopyrene-1,3,6 trisulfonic acid], in experiment [2], the Rb/r1p came to 1.6, the Ka was determined as 319 M⁻¹ and the Rb was 7.6 mM⁻¹ s⁻¹.

Consider `CNC(=O)CN(CCN(CCN(CC(=O)[O-])CC(=O)NC)CC(=O)[O-])CC(=O)[O-].[Gd+3]` [Omniscan], for which the Ka result in experiment [1] is “no binding is observed; also recorded: No interaction”.

As to `O=S(=O)(O)c1ccc(O)cc1` [HBSA, 4-Hydroxybenzenesulfonic acid], in experiment [2], the Ka entry is given as “No binding; also recorded: No interaction”.

As for `O=S(=O)(O)c1ccc2cc(S(=O)(=O)O)ccc2c1` [2,6 NDS, 2,6 Naphthalene disulphonic acid], in experiment [2], the Rb/r1p is reported as 1.2, the Ka is 94.4 M⁻¹ and the Rb turned out to be 5.4 mM⁻¹ s⁻¹.
